The target in experiment [1] is T1, Pim-2 stably transfected into the U2OS human osteogenic sarcoma line (Homo sapiens, UniProt Q9P1W9).
T1 construct: expressed in transfected cells; host or cells: U2OS human osteogenic sarcoma line
Briefly: Pim cell assay, phospho-BAD normalized against total BAD, U2OS stably transfected with Pim-2. The format is cell-based. The protocol: (§1) The cell lines used in the assay were generated by the stable transfection of either Pim-1 or Pim-2 into the U2OS human osteogenic sarcoma line. The assay for determination of the Pim activity in the engineered U2OS cell lines measures levels of phospho-BAD normalized against total BAD protein levels. It was conducted as follows:
(§2) The adherent cells were dissociated from the flasks using non-enzymatic cell dissociation solution (Sigma # C5914). […] The cells were then incubated overnight at 37° C., 5% CO2.
(§3) In addition to the 10-point dosing curve of the test compound, DMSO alone was run as the high control.
(§4) This dilution in DMSO was then diluted again into cell growth medium. Aliquots (12 uL) of the compound diluted in growth medium were then transferred to the appropriate wells of the 96-well plates containing cells to yield a final DMSO concentration of 0.3%.
(§5) The cell plates containing lysis buffer were then immediately stored at −70° C.
(§6) These prepared lysates were then assayed for phospho and total BAD according to the manufacturer's protocols (Meso Scale Diagnostics, Cat# K15103C-3 & # K15103D-3). The plates were read on the MSD Sector Imager 6000, and results were calculated according to the assay protocols ((% Phosphoprotein=((2×Phospho signal)/(Phospho signal+Total signal))×100)).

For experiment [2], the target named is T2, Pim-1 stably transfected into the U2OS human osteogenic sarcoma line (Homo sapiens, UniProt P11309).
T2 construct: expressed in transfected cells; host or cells: U2OS human osteogenic sarcoma line
Briefly: Pim cell assay, phospho-BAD normalized against total BAD, U2OS stably transfected with Pim-1. The experiment is classed as cell-based. The method, then:
as §1, §2, §3, §4, §5, §6

For experiment [3], the target named is T3, full length recombinant Pim-2 protein (Homo sapiens, UniProt Q9P1W9).
T3 construct: by full length recombinant Pim-1, Pim-2, or Pim-3 protein; hexahistidine tag followed by a thrombin cleavage site (N); made in house; host or cells: Sf9 (baculovirus) or E. coli (pET28)
Briefly: Pim-2 enzyme assay (HTRF, phosphorylation of biotinylated-BAD (S112) peptide). The format is biochemical. As to conditions: read-out: Pim2_IC50. Put shortly:
(§7)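 Kinase: full-length human Pim-1/Pim-2, His6-thrombin tagged. Substrate biotin-BAD (S112) peptide. Buffer 60 mM Hepes pH 7.0, 0.05% BSA, 2 mM DTT. Stop 3 mM EDTA. Detection HTRF (Eu anti-pBAD/SA-APC). IC50 by 4-parameter logistic on POC.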
Background: In TR-FRET formats the signal depends on donor and acceptor labels being close together.

For experiment [4], the target named is T4, full length recombinant Pim-1 protein (Homo sapiens, UniProt P11309).
T4 construct: by full length recombinant Pim-1, Pim-2, or Pim-3 protein; hexahistidine tag followed by a thrombin cleavage site (N); made in house; host or cells: Sf9 (baculovirus) or E. coli (pET28)
Briefly: Pim-1 enzyme assay (HTRF, phosphorylation of biotinylated-BAD (S112) peptide). As to conditions: read-out: Pim_1_IC50. The experiment is classed as biochemical. Put shortly: as §7

Where [5] appears, read: U2OS stably transfected with Pim-2, phospho-BAD normalized against total BAD, 29 min incubation, read-out: Pim2_Cell_IC50_.
The mark [6] stands for this setting: U2OS stably transfected with Pim-1, phospho-BAD normalized against total BAD, 29 min incubation, read-out: Pim1_Cell_IC50_.

The source of these data is patent publication US9090593B2, “Bicyclic compounds as Pim inhibitors” (AMGEN INC., priority 2010, dated 2015).

Where a name gives a salt, the structure may show the parent alone. Read-outs that look alike come from different tables or passages of the source.

T2 sequence (P11309 whole entry): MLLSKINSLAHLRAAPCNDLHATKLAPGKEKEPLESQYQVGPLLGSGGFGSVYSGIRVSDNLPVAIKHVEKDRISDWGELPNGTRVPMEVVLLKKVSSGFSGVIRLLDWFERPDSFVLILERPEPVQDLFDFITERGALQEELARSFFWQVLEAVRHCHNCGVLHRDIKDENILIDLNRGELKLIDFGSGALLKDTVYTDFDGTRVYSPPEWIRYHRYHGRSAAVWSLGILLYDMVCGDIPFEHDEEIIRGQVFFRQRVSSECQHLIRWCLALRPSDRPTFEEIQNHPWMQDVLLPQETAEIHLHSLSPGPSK
T4 sequence (P11309 whole entry): as above
T1 sequence (Q9P1W9 whole entry): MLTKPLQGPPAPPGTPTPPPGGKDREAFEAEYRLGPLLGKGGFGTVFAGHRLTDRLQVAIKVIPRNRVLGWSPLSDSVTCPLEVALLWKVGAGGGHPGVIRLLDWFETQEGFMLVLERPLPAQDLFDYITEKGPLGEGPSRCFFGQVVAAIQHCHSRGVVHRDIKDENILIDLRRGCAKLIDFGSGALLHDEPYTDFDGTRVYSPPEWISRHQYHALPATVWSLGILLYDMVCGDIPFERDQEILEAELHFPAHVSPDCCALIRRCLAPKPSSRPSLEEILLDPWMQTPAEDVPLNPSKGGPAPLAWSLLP
T3 sequence (Q9P1W9 whole entry): as above

In the case of `NC1CCN(c2cncc(-c3c[nH]c4ccc(-c5cncc(NC6CC6)n5)cc34)n2)CC1` [Example 519], the IC50 in experiment [1] (setting [5]) is above 31600 nM; in experiment [2] (setting [6]), 338 nM; in experiment [3], 128 nM; in experiment [4], 1 nM.
Regarding `CN1CCOc2cc(-c3ccc4[nH]cc(-c5cncc(O[C@@H]6CCCNC6)n5)c4c3)ccc21` [Example 347], the IC50 in experiment [1] (setting [5]) is 9690 nM; in experiment [2] (setting [6]), 273 nM; in experiment [3], 16 nM; in experiment [4], 2 nM.
As to `COc1cncc(-c2n[nH]c3ccc(-c4cncc(NC5CC5)n4)cc23)n1` [Example 383, N-cyclopropyl-6-(3-(6-methoxy-2-pyrazinyl)-1H-indazol-5-yl)-2-pyrazinamine], the IC50 in experiment [1] (setting [5]) is 21800 nM; in experiment [2] (setting [6]), 44 nM; in experiment [3] it was 10 nM; in experiment [4], 1 nM.
Take `COc1cc(-c2ccc3[nH]cc(-c4cncc(O[C@@H]5CCCNC5)n4)c3c2)c(F)cn1` [Example 290]: the IC50 in experiment [1] (setting [5]) is 6530 nM; in experiment [2] (setting [6]) it was 313 nM; in experiment [3] it was 11 nM; in experiment [4], 4 nM.
In the case of `COc1cncc(-c2ccc3[nH]nc(-c4ccnc(N5CCC(N)CC5)n4)c3c2)c1` [Example 30, 1-(4-(5-(5-Methoxypyridin-3-yl)-1H-indazol-3-yl)pyrimidin-2-yl)piperidin-4-amine], the IC50 amounted to 2240 nM in experiment [1] (read-out: Pim2_Cell_IC50); 89 nM in experiment [2] (read-out: Pim1_Cell_IC50); 7 nM in experiment [3] (enzyme assay, Pim-2); 1 nM in experiment [4] (enzyme assay, Pim-1).
In the case of `c1cc(N2CCOCC2)ccc1-c1ccc2[nH]cc(-c3cncc(O[C@@H]4CCCNC4)n3)c2c1` [Example 309, 5-(4-(4-morpholinyl)phenyl)-3-(6-((3R)-3-piperidinyloxy)-2-pyrazinyl)-1H-indole], the IC50 is 17000 nM in experiment [1] (setting [5]), 125 nM in experiment [2] (setting [6]), 18 nM in experiment [3] and 4 nM in experiment [4].
In the case of `c1cc2[nH]nc(-c3cncc(O[C@@H]4CCNCC45CC5)n3)c2cc1-c1cncc(C2CC2)n1` [Example 373, 3-(6-((8R)-5-azaspiro[2.5]oct-8-yloxy)-2-pyrazinyl)-5-(6-cyclopropyl-2-pyrazinyl)-1H-indazole], the IC50 came to 3370 nM in experiment [1] (setting [5]), 130 nM in experiment [2] (setting [6]), 5 nM in experiment [3] and 1 nM in experiment [4].
As to `Oc1cc(-c2c[nH]c3ccc(-c4c(F)cccc4F)cc23)nc(N2CCOCC2)n1` [Example 483], the IC50 in experiment [1] (setting [5]) was above 31600 nM; in experiment [2] (setting [6]) it was 219 nM; in experiment [3], 32 nM; in experiment [4] it was 4 nM.
The corresponding values for `Cc1n[nH]c2ncc(-c3ccc4[nH]cc(-c5cncc(O[C@@H]6CCCNC6)n5)c4c3)cc12` [Example 339] are above 31600 nM, 2580 nM, 92 nM and 14 nM.
Regarding `NC1CCN(c2cncc(-c3c[nH]c4ccc(-c5cncc(C6CC6)n5)cc34)n2)CC1` [Example 517], the IC50 in experiment [1] (setting [5]) is above 31600 nM; in experiment [2] (setting [6]) it was 176 nM; in experiment [3], 65 nM; in experiment [4], 2 nM.
Taken in the same sequence, the figures for `CC(C)Nc1cncc(-c2n[nH]c3ccc(-c4cncc(C5CC5)n4)cc23)n1` [Example 368, 6-(5-(6-cyclopropyl-2-pyrazinyl)-1H-indazol-3-yl)-N-(1-methylethyl)-2-pyrazinamine] were 1770 nM, 23 nM, 37 nM and 6 nM.
Take `Nc1cncc(-c2ccc3[nH]nc(-c4cncc(OCCF)n4)c3c2)n1` [Example 386, 6-(3-(6-(2-fluoroethoxy)-2-pyrazinyl)-1H-indazol-5-yl)-2-pyrazinamine]: the IC50 in experiment [1] (setting [5]) was above 31600 nM; in experiment [2] (setting [6]) it was 61 nM; in experiment [3] it was 11 nM; in experiment [4] it was 6 nM.
Taken in the same sequence, the figures for `Oc1ncc(-c2ccc3[nH]cc(-c4cncc(O[C@@H]5CCCNC5)n4)c3c2)c(O)n1` [Example 293] were above 31600 nM, above 31600 nM, 60 nM and 16 nM.
Consider `c1cc(-c2ccc3[nH]nc(-c4cncc(O[C@@H]5CCCNC5)n4)c3c2)nc(C2CC2)n1` [Example 361], for which the IC50 in experiment [1] (setting [5]) is above 31600 nM; in experiment [2] (setting [6]), 2070 nM; in experiment [3] it was 71 nM; in experiment [4] it was 12 nM.
As for `c1cc2[nH]cc(-c3cncc(O[C@@H]4CCCNC4)n3)c2cc1-c1cnc2c(c1)CCCN2` [Example 335], the IC50 in experiment [1] (setting [5]) was above 31600 nM; in experiment [2] (setting [6]), 1060 nM; in experiment [3], 72 nM; in experiment [4], 5 nM.
As to `CC(C)Oc1cncc(-c2n[nH]c3ccc(-c4cncc(C5CC5)n4)cc23)n1` [Example 381], the IC50 in experiment [1] (setting [5]) was above 31600 nM; in experiment [2] (setting [6]) it was 772 nM; in experiment [3], 37 nM; in experiment [4], 4 nM.
Regarding `CC(C)Nc1nc(-c2n[nH]c3ccc(-c4c(F)cccc4F)cc23)cc(=O)[nH]1` [Example 524], the IC50 was above 31600 nM in experiment [1] (setting [5]), 1010 nM in experiment [2] (setting [6]), 18 nM in experiment [3] and 5 nM in experiment [4].
The corresponding values for `CC(C)Oc1nc(-c2n[nH]c3ccc(-c4c(F)cccc4F)cc23)cc(=O)[nH]1` [Example 528] are above 15800 nM, 779 nM, 36 nM and 13 nM.
Regarding `NC1CCN(c2cncc(-c3n[nH]c4ccc(-c5cccnc5)cc34)n2)CC1` [Example 82, 1-(6-(5-(3-pyridinyl)-1H-indazol-3-yl)-2-pyrazinyl)-4-piperidinamine], the IC50 in experiment [1] (U2OS cells stably transfected with Pim-2, phospho-BAD, high dose […], read-out: Pim2_Cell_IC50) is 7810 nM; in experiment [2] (U2OS cells stably transfected with Pim-1, phospho-BAD, high dose […], read-out: Pim1_Cell_IC50) it was 171 nM; in experiment [3] (enzyme assay, Pim-2), 7 nM; in experiment [4] (enzyme assay, Pim-1) it was 1 nM.
On to `CC(C)Oc1cncc(-c2ccc3[nH]cc(-c4nnc(N[C@@H]5CCCNC5)o4)c3c2)n1` [Example 518], for which the IC50 was above 31600 nM in experiment [1] (setting [5]), 6920 nM in experiment [2] (setting [6]), 97 nM in experiment [3] and 25 nM in experiment [4].
`COC(=O)c1ccc2[nH]nc(-c3cncc(N[C@@H]4CCCNC4)n3)c2c1` [Example 473]: the IC50 in experiment [1] (setting [5]) is 9630 nM; in experiment [2] (setting [6]) it was 221 nM; in experiment [3] it was 44 nM; in experiment [4], 4 nM.
For `Fc1cnccc1-c1ccc2[nH]cc(-c3cncc(O[C@@H]4CCCNC4)n3)c2c1` [Example 297, 5-(3-fluoro-4-pyridinyl)-3-(6-((3R)-3-piperidinyloxy)-2-pyrazinyl)-1H-indole], the IC50 in experiment [1] (setting [5]) was 8450 nM; in experiment [2] (setting [6]), 166 nM; in experiment [3], 7 nM; in experiment [4], 3 nM.
In the case of `N#Cc1ncccc1-c1ccc2[nH]cc(-c3cncc(O[C@@H]4CCCNC4)n3)c2c1` [Example 333], the IC50 in experiment [1] (setting [5]) was above 10000 nM; in experiment [2] (setting [6]), 803 nM; in experiment [3] it was 40 nM; in experiment [4] it was 11 nM.
The corresponding values for `COc1ccc(-c2ccc3[nH]cc(-c4cncc(O[C@@H]5CCCNC5)n4)c3c2)cc1OC` [Example 345] are above 15800 nM, 729 nM, 157 nM and 20 nM.
Taken in the same sequence, the figures for `c1cc2[nH]nc(-c3cncc(O[C@H]4CNCCC45CC5)n3)c2cc1N1CCOCC1` [Example 400] were 8650 nM, 1130 nM, 25 nM and 17 nM.
With `C1=C(c2ccc3[nH]nc(-c4cncc(O[C@H]5CNCCC56CC6)n4)c3c2)CCOC1` [Example 263, 3-(6-((4R)-6-azaspiro[25]oct-4-yloxy)-2-pyrazinyl)-5-(3,6-dihydro-2H-pyran-4-yl)-1H-indazole 2,2,2-trifluoroacetate salt], the IC50 in experiment [1] (setting [5]) amounted to 5760 nM; in experiment [2] (setting [6]), 180 nM; in experiment [3], 8 nM; in experiment [4], 4 nM.
`CC(=O)Nc1ccc(-c2ccc3[nH]cc(-c4cncc(O[C@@H]5CCCNC5)n4)c3c2)cc1` [Example 327]: the IC50 in experiment [1] (setting [5]) was 8060 nM; in experiment [2] (setting [6]), 666 nM; in experiment [3], 19 nM; in experiment [4], 5 nM.
